Type in all cases: functional, cell-based
Assay [1] deals with RPMI-8226. In words: Antiproliferative activity against human RPMI-8226 cells cultured as 3D-spheroids assessed as reduction in cell viability after 48 hrs by Celltiter-Glo assay. The following applies: RPMI-8226, 48 h. (In general: ATP-based viability assays read luminescence as a measure of living cells.)
Assay [2] relates to RPMI-8226. In words: Antiproliferative activity against human RPMI 8226 cells assessed as reduction in cell viability incubated for 72 hrs by XTT assay. To be noted: RPMI-8226, 72 h. A general note: Tetrazolium dyes change colour on reduction, which living cells bring about.
Assay [3] can be described thus: Antiproliferative activity against human MM1.R cells assessed as reduction in cell viability incubated for 72 hrs by XTT assay. The following applies: MM.1R.
The test system of another assay is MM1.S. In words: Antiproliferative activity against human MM1.S cells assessed as reduction in cell viability incubated for 72 hrs by XTT assay.

One may read the IC50 as the concentration that gives 50% inhibition. `CC1=C(CO)C(=O)O[C@@H]([C@@H](C)[C@H]2CC[C@H]3[C@@H]4C[C@H]5O[C@]56[C@@H](O)[C@@H](n5ccnc5)CC(=O)[C@]6(C)[C@H]4CC[C@]23C)C1`: the IC50 was determined as 2620 nM in the assay on RPMI-8226 [1], 270 nM in the assay with RPMI-8226 [2], 75 nM in assay [3] and 60 nM in the assay on MM1.S.

Consider `CC(=O)O[C@@H]1C=CC(=O)[C@]2(C)[C@H]3CC[C@]4(C)[C@@H]([C@@](C)(O)[C@H]5CC(C)=C(C)C(=O)O5)CC[C@H]4[C@@H]3C[C@H]3O[C@]132`, for which the IC50 is 1640 nM with RPMI-8226 [1], 301 nM in the assay with RPMI-8226 [2], 522 nM in assay [3] and 601 nM in the assay with MM1.S.

Take `C[C@H]1C[C@H]([C@](C)(O)[C@@]2(O)CC[C@H]3[C@@H]4C[C@H]5O[C@]56[C@@H](O)C=CC(=O)[C@]6(C)[C@H]4CC[C@@]32C)OC(=O)[C@@H]1C`: the IC50 in the assay on RPMI-8226 [1] is above 40000 nM; with RPMI-8226 [2], 506 nM; in assay [3], 1090 nM; in the assay with MM1.S it was 1820 nM.

On to `CC1=C(CO)C(=O)O[C@@H]([C@@H](C)[C@H]2CC[C@H]3[C@@H]4C[C@H]5O[C@]56[C@@H](O)[C@@H](OS(=O)(=O)O)CC(=O)[C@]6(C)[C@H]4CC[C@]23C)C1`, for which the IC50 in the assay on RPMI-8226 [1] is 8520 nM; in the assay with RPMI-8226 [2] it was 218 nM; in assay [3] it was 129 nM; in the assay on MM1.S it was 115 nM.

Turning to `CC1=C(CO)C(=O)O[C@@H]([C@@H](C)[C@H]2CC[C@H]3[C@@H]4C[C@H]5O[C@]56[C@@H](O)C=CC(=O)[C@]6(C)[C@H]4CC[C@]23C)C1` [WITHAFERIN A], the IC50 was 1600 nM in the assay on RPMI-8226 [1], 258 nM in the assay on RPMI-8226 [2], 263 nM in assay [3] and 53 nM in the assay with MM1.S.

On to `CC(=O)OCC1=C(C)C[C@H]([C@@H](C)[C@H]2CC[C@H]3[C@@H]4C[C@H]5O[C@]56[C@@H](O)[C@@H](OC(C)=O)CC(=O)[C@]6(C)[C@H]4CC[C@]23C)OC1=O`, for which the IC50 was above 40000 nM in the assay with RPMI-8226 [1], 252 nM in the assay with RPMI-8226 [2], 374 nM in assay [3] and 229 nM in the assay on MM1.S.

For `CC1=C(CO)C(=O)O[C@@H]([C@@H](C)[C@H]2CC[C@H]3[C@@H]4C[C@H](I)[C@]5(O)[C@@H](O)C=CC(=O)[C@]5(C)[C@H]4CC[C@]23C)C1`, the IC50 with RPMI-8226 [2] was determined as 889 nM.

For the molecule `CC1=C(C)C(=O)O[C@@H]([C@](C)(O)[C@H]2CC[C@H]3[C@@H]4C[C@H]5O[C@]56C(O)C=CC(=O)[C@]6(C)[C@H]4CC[C@]23C)C1` (stereo partly specified), the IC50 was found to be 1570 nM with RPMI-8226 [1], 297 nM in the assay with RPMI-8226 [2], 372 nM in assay [3] and 441 nM in the assay on MM1.S.

In the case of `C[C@H]1C[C@H]([C@](C)(O)[C@H]2[C@@H](O)C[C@H]3[C@@H]4C[C@H]5O[C@]56[C@@H](O)C=CC(=O)[C@]6(C)[C@H]4CC[C@]23C)OC(=O)[C@@H]1C`, the IC50 is 3230 nM in the assay with RPMI-8226 [1], 273 nM in the assay with RPMI-8226 [2], 425 nM in assay [3] and 623 nM in the assay on MM1.S.

Turning to `CC(C)C[C@H](NC(=O)[C@H](Cc1ccccc1)NC(=O)c1cnccn1)B(O)O` [BORTEZOMIB], the IC50 in the assay with RPMI-8226 [1] was 6.4 nM; with RPMI-8226 [2], 4.7 nM; in assay [3], 2.4 nM; with MM1.S, 2.5 nM.

For the molecule `CC(=O)OCC1=C(C)C[C@H]([C@@H](C)[C@H]2CC[C@H]3[C@@H]4CC=C5C(=O)C=C[C@@H](OC(C)=O)[C@]5(C)[C@H]4CC[C@]23C)OC1=O`, the IC50 in the assay with RPMI-8226 [2] worked out at 942 nM.

As for `CC1=C(C)C(=O)O[C@@H]([C@](C)(O)[C@H]2CC[C@H]3[C@@H]4C[C@H]5O[C@]56[C@@H](O)C=CC(=O)[C@]6(C)[C@H]4CC[C@]23C)C1` [WITHANOLIDE D], the IC50 came to 980 nM in the assay with RPMI-8226 [1], 76 nM in the assay with RPMI-8226 [2], 106 nM in assay [3] and 107 nM in the assay on MM1.S.

As for `CC1=C(C)C(=O)O[C@@H]([C@](C)(O)[C@H]2CC[C@H]3[C@@H]4C[C@H](I)[C@]5(O)[C@@H](O)C=CC(=O)[C@]5(C)[C@H]4CC[C@]23C)C1`, the IC50 with RPMI-8226 [2] amounted to 545 nM.

For the molecule `CC(=O)OCC1=C(C)C[C@H]([C@@H](C)[C@H]2CC[C@H]3[C@@H]4C[C@H]5O[C@]56[C@@H](O)C=CC(=O)[C@]6(C)[C@H]4CC[C@]23C)OC1=O`, the IC50 in the assay on RPMI-8226 [1] came to 1510 nM; in the assay with RPMI-8226 [2], 212 nM; in assay [3], 107 nM; in the assay with MM1.S, 114 nM.

Turning to `CC1=C(C)C(=O)O[C@@H]([C@](C)(O)[C@H]2CC[C@H]3[C@@H]4C[C@H]5O[C@]56C(=O)C=CC(=O)[C@]6(C)[C@H]4CC[C@]23C)C1`, the IC50 with RPMI-8226 [1] was above 40000 nM; in the assay with RPMI-8226 [2], 276 nM; in assay [3], 858 nM; with MM1.S, 750 nM.

As to `CC(=O)O[C@H]1C=CC(=O)[C@]2(C)[C@H]3CC[C@]4(C)[C@@H]([C@H](C)[C@H]5CC(C)=C(CO)C(=O)O5)CC[C@H]4[C@@H]3C[C@H]3O[C@]132`, the IC50 with RPMI-8226 [1] turned out to be 1390 nM; in the assay with RPMI-8226 [2] it was 203 nM; in assay [3], 129 nM; in the assay on MM1.S, 97 nM.

As to `CC(=O)O[C@H]1C=CC(=O)[C@]2(C)[C@H]3CC[C@]4(C)[C@@H]([C@@](C)(O)[C@H]5CC(C)=C(C)C(=O)O5)CC[C@H]4[C@@H]3C[C@H]3O[C@]132`, the IC50 is 820 nM with RPMI-8226 [1], 252 nM with RPMI-8226 [2], 350 nM in assay [3] and 206 nM with MM1.S.

As for `C[C@H]1C(=O)O[C@@H]([C@](C)(O)[C@H]2CC[C@H]3[C@@H]4C[C@H]5O[C@]56[C@@H](O)C=CC(=O)[C@]6(C)[C@H]4CC[C@]23C)C[C@@]1(C)O`, the IC50 with RPMI-8226 [1] is 12300 nM; in the assay on RPMI-8226 [2], 451 nM; in assay [3], 997 nM; in the assay with MM1.S, 1290 nM.

Consider `CC(=O)O[C@H]1C=CC(=O)[C@]2(C)[C@H]3CC[C@@]4(C)[C@H]([C@@H]3C[C@H]3O[C@]132)[C@H](OC(C)=O)C[C@@H]4[C@@](C)(O)[C@H]1CC(C)=C(C)C(=O)O1`, for which the 50% inhibitory concentration (IC50) is 3420 nM in the assay on RPMI-8226 [1], 217 nM in the assay on RPMI-8226 [2], 322 nM in assay [3] and 370 nM with MM1.S.

Consider `CC(=O)OCC1=C(C)C[C@H]([C@@H](C)[C@H]2CC[C@H]3[C@@H]4CC=C5C(=O)C=CC(=O)[C@]5(C)[C@H]4CC[C@]23C)OC1=O`, for which the IC50 in the assay with RPMI-8226 [1] was determined as 9930 nM; in the assay on RPMI-8226 [2], 458 nM; in assay [3], 236 nM; in the assay with MM1.S it was 246 nM.

Take `CC(=O)OCC1=C(C)C[C@H]([C@@H](C)[C@H]2CC[C@H]3[C@@H]4CC=C5C(O)C=CC(=O)[C@]5(C)[C@H]4CC[C@]23C)OC1=O` (stereo partly specified): the IC50 with RPMI-8226 [2] was 770 nM.

With `CC(=O)OCC1=C(C)C[C@H]([C@@H](C)[C@H]2CC[C@H]3[C@@H]4C[C@H]5O[C@]56C(=O)C=CC(=O)[C@]6(C)[C@H]4CC[C@]23C)OC1=O`, the IC50 with RPMI-8226 [2] came out at 777 nM.

Take `CC1=C(CO)C(=O)O[C@@H]([C@@H](C)[C@H]2CC[C@H]3[C@@H]4C[C@H]5O[C@]56[C@@H](O)[C@@H](N5CCCCC5)CC(=O)[C@]6(C)[C@H]4CC[C@]23C)C1`: the IC50 is 1870 nM in the assay on RPMI-8226 [1], 484 nM in the assay on RPMI-8226 [2], 80 nM in assay [3] and 55 nM in the assay on MM1.S.

For the molecule `CC1=C(C)C(=O)O[C@@H]([C@](C)(O)[C@H]2CC[C@H]3[C@@H]4CC=C5C(=O)C=CC(=O)[C@]5(C)[C@H]4CC[C@]23C)C1`, the IC50 in the assay with RPMI-8226 [2] was determined as 780 nM.

As to `CC1=C(C)C(=O)O[C@@H]([C@](C)(O)[C@H]2[C@@H](O)C[C@H]3[C@@H]4C[C@H](I)[C@]5(O)[C@@H](O)C=CC(=O)[C@]5(C)[C@H]4CC[C@]23C)C1`, the IC50 with RPMI-8226 [2] was 609 nM.

In the case of `CC1=C(C)C(=O)O[C@@H]([C@](C)(O)[C@H]2CC[C@H]3[C@@H]4CC=C5[C@H](O)C=CC(=O)[C@]5(C)[C@H]4CC[C@]23C)C1`, the IC50 in the assay with RPMI-8226 [2] amounted to 768 nM.

With `CC1=C(C)C(=O)O[C@@H]([C@](C)(O)[C@H]2CC[C@H]3[C@@H]4C[C@H](I)[C@]5(O)C(=O)C=CC(=O)[C@]5(C)[C@H]4CC[C@]23C)C1`, the IC50 in the assay on RPMI-8226 [2] came out at 950 nM.

Regarding `CC1=C(C)C(=O)O[C@@H]([C@](C)(O)[C@H]2CC[C@H]3[C@@H]4C[C@H]5O[C@]56CC=CC(=O)[C@]6(C)[C@H]4CC[C@]23C)C1`, the IC50 in the assay with RPMI-8226 [2] is 744 nM.

Turning to `C[C@@H]1[C@@H](C)C(=O)OC12C[C@](C)(O)C1[C@H](C[C@H]3[C@@H]4C[C@H]5O[C@]56[C@@H](O)C=CC(=O)[C@]6(C)[C@H]4CC[C@]13C)O2` (stereo partly specified), the IC50 with RPMI-8226 [1] came out at 4650 nM; with RPMI-8226 [2], 239 nM; in assay [3], 366 nM; in the assay with MM1.S, 559 nM.

As to `C[C@H]1[C@H]([C@@H](O)[C@](C)(O)[C@H]2[C@@H](O)C[C@H]3[C@@H]4C[C@H]5O[C@]56[C@@H](O)C=CC(=O)[C@]6(C)[C@H]4CC[C@]23C)OC(=O)[C@@H]1C`, the IC50 with RPMI-8226 [2] was 601 nM.

As for `CC1C(=O)O[C@@H]([C@](C)(O)C2=CC[C@@]3(O)[C@@H]4C[C@H]5O[C@]56[C@@H](O)C=CC(=O)[C@]6(C)[C@H]4CC[C@]23C)C[C@@H]1C` (stereo partly specified), the IC50 with RPMI-8226 [1] is 2290 nM; in the assay with RPMI-8226 [2], 122 nM; in assay [3], 209 nM; in the assay with MM1.S it was 338 nM.
